Test results: ChEMBL document CHEMBL1201862, “PubChem BioAssay data set” (2004)
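Method: 48-hour compound exposure of cells in 96-well plates, five concentrations, linear interpolation of endpoints. GI50 is the concentration that inhibits growth by half.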 Calls of active or inactive are those of the source. Cut-off read from the data, not from the text of the source: active = GI50 up to about 1.1 µM and inactive = higher.

What was measured:
Assay in all cases: NCI-60 cell line screen, 48 h
[1] = test system: HCT-15
[2] = test system: K562
[3] = test system: UACC-62
[4] = test system: A498
[5] = test system: CAKI-1
[6] = test system: EKVX
[7] = test system: SF-268
[8] = test system: PC-3
[9] = test system: MDA-MB-435
[10] = test system: BT-549
[11] = test system: TK-10
[12] = test system: SK-MEL-28
[13] = test system: OVCAR-5
[14] = test system: RPMI-8226
[15] = test system: SK-MEL-5
[16] = test system: CCRF-CEM
[17] = test system: MOLT-4
[18] = test system: NCI/ADR-RES
[19] = test system: A549
[20] = test system: OVCAR-3
[21] = test system: NCI-H23
[22] = test system: OVCAR-4
[23] = test system: 786-0
[24] = test system: SW-620
[25] = test system: T47D
[26] = test system: HCT-116
[27] = test system: HOP-92
[28] = test system: SNB-75
[29] = test system: MCF7
[30] = test system: SNB-19
[31] = test system: M14
[32] = test system: LOX IMVI
[33] = test system: RXF 393
[34] = test system: NCI-H226
[35] = test system: HCC 2998
[36] = test system: SF-295
[37] = test system: HOP-62
[38] = test system: UACC-257
[39] = test system: COLO 205
[40] = test system: SK-MEL-2
[41] = test system: MDA-MB-231
[42] = test system: U-251
[43] = test system: KM12
[44] = test system: SF-539
[45] = test system: SK-OV-3
[46] = test system: DU-145
[47] = test system: UO-31
[48] = test system: ACHN
[49] = test system: NCI-H460
[50] = test system: MDA-N
[51] = test system: HT-29
[52] = test system: SR
[53] = test system: OVCAR-8
[54] = test system: Malme-3M
[55] = test system: SN12C
[56] = test system: HL-60
[57] = test system: IGROV-1
[58] = test system: NCI-H522

Structure (SMILES): CN(C)C1(N(C)C)Oc2c(c(=O)n(C)c(=O)n2C)C(c2ccccc2Br)C1(F)F (centres undefined)
- GI50 [1]: > 100 µM
- GI50 [2]: > 100 µM (inactive)
- GI50 [3]: > 100 µM (inactive)
- GI50 [4]: > 100 µM (inactive)
- GI50 [5]: > 100 µM (inactive)
- GI50 [6]: > 100 µM (inactive)
- GI50 [7]: > 100 µM (inactive)
- GI50 [8]: > 100 µM (inactive)
- GI50 [9]: > 100 µM (inactive)
- GI50 [10]: > 100 µM (inactive)
- GI50 [11]: > 100 µM (inactive)
- GI50 [12]: > 100 µM (inactive)
- GI50 [13]: > 100 µM (inactive)
- GI50 [14]: > 100 µM (inactive)
- GI50 [15]: > 100 µM (inactive)
- GI50 [16]: > 100 µM (inactive)
- GI50 [17]: > 100 µM (inactive)
- GI50 [18]: > 100 µM (inactive)
- GI50 [19]: > 100 µM (inactive)
- GI50 [20]: > 100 µM (inactive)
- GI50 [21]: > 100 µM (inactive)
- GI50 [22]: > 100 µM (inactive)
- GI50 [23]: > 100 µM (inactive)
- GI50 [24]: > 100 µM (inactive)
- GI50 [25]: > 100 µM (inactive)
- GI50 [26]: > 100 µM (inactive)
- GI50 [27]: > 100 µM (inactive)
- GI50 [28]: > 100 µM (inactive)
- GI50 [29]: > 100 µM (inactive)
- GI50 [30]: > 100 µM (inactive)
- GI50 [31]: > 100 µM (inactive)
- GI50 [32]: > 100 µM (inactive)
- GI50 [33]: > 100 µM (inactive)
- GI50 [34]: > 100 µM (inactive)
- GI50 [35]: > 100 µM (inactive)
- GI50 [36]: > 100 µM (inactive)
- GI50 [37]: > 100 µM (inactive)
- GI50 [38]: > 100 µM (inactive)
- GI50 [39]: > 100 µM (inactive)
- GI50 [40]: > 100 µM (inactive)
- GI50 [41]: > 100 µM (inactive)
- GI50 [42]: > 100 µM (inactive)
- GI50 [43]: > 100 µM (inactive)
- GI50 [44]: > 100 µM (inactive)
- GI50 [45]: > 100 µM (inactive)
- GI50 [46]: > 100 µM (inactive)
- GI50 [47]: > 100 µM (inactive)
- GI50 [48]: > 100 µM (inactive)
- GI50 [49]: > 100 µM (inactive)

Structure (SMILES): COC(=O)c1c([N+](=O)[O-])ncn1[C@H]1OC[C@@H](OC(C)=O)[C@@H](OC(C)=O)[C@@H]1OC(C)=O
- GI50 [1]: > 100 µM
- GI50 [2]: > 100 µM (inactive)
- GI50 [50]: > 100 µM (inactive)
- GI50 [3]: > 100 µM (inactive)
- GI50 [4]: > 100 µM (inactive)
- GI50 [5]: > 100 µM (inactive)
- GI50 [6]: > 100 µM (inactive)
- GI50 [51]: > 100 µM (inactive)
- GI50 [7]: > 100 µM (inactive)
- GI50 [8]: > 100 µM (inactive)
- GI50 [9]: > 100 µM (inactive)
- GI50 [10]: > 100 µM (inactive)
- GI50 [11]: > 100 µM (inactive)
- GI50 [12]: > 100 µM (inactive)
- GI50 [13]: > 100 µM (inactive)
- GI50 [16]: > 100 µM (inactive)
- GI50 [17]: > 100 µM (inactive)
- GI50 [18]: > 100 µM (inactive)
- GI50 [19]: > 100 µM (inactive)
- GI50 [20]: > 100 µM (inactive)
- GI50 [21]: > 100 µM (inactive)
- GI50 [22]: > 100 µM (inactive)
- GI50 [52]: > 100 µM (inactive)
- GI50 [53]: > 100 µM (inactive)
- GI50 [23]: > 100 µM (inactive)
- GI50 [54]: > 100 µM (inactive)
- GI50 [24]: > 100 µM (inactive)
- GI50 [25]: > 100 µM (inactive)
- GI50 [26]: > 100 µM (inactive)
- GI50 [27]: > 100 µM (inactive)
- GI50 [28]: > 100 µM (inactive)
- GI50 [29]: > 100 µM (inactive)
- GI50 [30]: > 100 µM (inactive)
- GI50 [31]: > 100 µM (inactive)
- GI50 [32]: > 100 µM (inactive)
- GI50 [33]: > 100 µM (inactive)
- GI50 [34]: > 100 µM (inactive)
- GI50 [35]: > 100 µM (inactive)
- GI50 [36]: > 100 µM (inactive)
- GI50 [37]: > 100 µM (inactive)
- GI50 [38]: > 100 µM (inactive)
- GI50 [39]: > 100 µM (inactive)
- GI50 [55]: > 100 µM (inactive)
- GI50 [41]: > 100 µM (inactive)
- GI50 [42]: > 100 µM (inactive)
- GI50 [56]: > 100 µM (inactive)
- GI50 [43]: > 100 µM (inactive)
- GI50 [44]: > 100 µM (inactive)
- GI50 [45]: > 100 µM (inactive)
- GI50 [46]: > 100 µM (inactive)
- GI50 [57]: > 100 µM (inactive)
- GI50 [47]: > 100 µM (inactive)
- GI50 [48]: > 100 µM (inactive)
- GI50 [58]: > 100 µM (inactive)
- GI50 [49]: > 100 µM (inactive)
